{"source": "patent US20260199499A1", "about": "“ANTI-PDL1 ANTIBODY-DRUG CONJUGATE AND USE” (SHANGHAI HENLIUS BIOTECH, INC., priority 2023, published 2026)", "key": {"[1]": {"test_system": "human PDL1-positive colorectal cancer LD1-2013-362125 PDX", "test": "Anti-tumor effect, LD1-2013-362125 PDX xenograft", "type": "in vivo, NU/NU mice", "conditions": "free loaded drug, dose not given, day 31", "experimental": "(§1) A human-derived PDL1-positive colorectal cancer LD1-2013-362125 model was revived in NU/NU mice. Once the tumor had grown to 500-800 mm^3, the tumor tissue was surgically aseptically excised, and non-tumor tissues and necrotic tissues were removed. The tumor tissue was stripped and evenly cut into tissue blocks (about 25-35 mg) of about 3 mm×3 mm×3 mm in size, and then, which were inoculated subcutaneously on the right side of NU/NU mice. Once the average tumor volume of the mice for grouping reached 156.99 mm3, the mice were grouped randomly according to the size of the tumor volume, ensuring similar tumor volumes between groups. The day of grouping was defined as day 0. After the start of dosing, the body weight and tumor size of the mice were measured twice a week, and the mice were dosed once a week, for three doses. Clinical symptoms observed during the experiment were recorded. The tumor volume was calculated according to the following formula: tumor volume (mm3)=½×(a×b2) (wherein a represented the long diameter, and b represented the short diameter)."}, "[2]": {"test_system": "human PDL1-positive cervical cancer LD1-0010-200614 PDX", "test": "Anti-tumor effect, LD1-0010-200614 PDX xenograft", "type": "in vivo, Balb/c nude mice", "conditions": "free loaded drug, dose not given, day 35", "experimental": "as §1, with “cervical” for “colorectal”, “LD1-0010-200614” for “LD1-2013-362125”, “Balb/c nude” for “NU/NU”, “146.74” for “156.99”"}, "[3]": {"test_system": "human PDL1-positive gastric cancer LD1-0017-200636 PDX", "test": "Anti-tumor effect, LD1-0017-200636 PDX xenograft", "type": "in vivo, NU/NU mice", "conditions": "free loaded drug, dose not given, day 21", "experimental": "as §1, with “gastric” for “colorectal”, “LD1-0017-200636” for “LD1-2013-362125”, “30-60” for “25-35”, “138.70” for “156.99”"}, "human dendritic cells": {"test_system": "human dendritic cells", "type": "cell-based", "experimental": "(§2) Since some human immune cells such as antigen-presenting cells (macrophages, dendritic cells, etc.) express PDL1, the immunotoxicity of PDL1-targeted antibody-conjugated drugs is an inevitable problem. Human dendritic cells and macrophages, after induced differentiation, were digested and viable cells were counted using Vi-Cell XR cytometer. The cell suspension was adjusted to an appropriate concentration with a culture medium. 80 μl/well of the cell suspension was added to a cell culture plate, which was supplemented with 500 IU/mL of IFN-γ. The test drug was diluted with a gradient (5-fold dilutions). 20 μl of each of the diluted test articles was taken and added to the cell suspension in the cell culture plate, and the cell culture plate was placed in an incubator and cultured for 96 hours. 50 μl/well of a CellTiter-Glo solution (purchased from Promega) that had been thawed in advance and equilibrated to room temperature was added according to CellTiter-Glo operation instructions. The wells were mixed uniformly with a microwell plate shaker for 2 minutes and maintained at room temperature for 10 minutes. The […] signal was measured using Envision 2104 plate reader. SGN-PDL1V was used as one of the control molecules and was disclosed in U.S. Patent No. US 20210101982 A1."}, "human macrophages": {"test_system": "human macrophages", "type": "cell-based", "experimental": "as §2"}, "[4]": {"test_system": "human non-small cell lung cancer LU6437 PDX", "test": "Anti-tumor effect, LU6437 PDX xenograft", "type": "in vivo, BALB/c nude mice", "conditions": "3 mg/kg, once a week for three doses, day 21", "experimental": "A revived tumor tissue was harvested from HuPrime® lung cancer xenograft model LU6437 tumor-bearing mice and cut into tumor blocks with a diameter of 2-3 mm, which were inoculated subcutaneously at the right anterior scapula of BALB/c nude mice. […] The average volume was 253.70 mm^3 in the actual groups. The day of grouping was defined as day 0. After the start of dosing, the mice were dosed once a week, for three doses, and the body weight and tumor size of the mice were measured twice a week. Clinical symptoms observed during the experiment were recorded. The tumor volume was calculated according to the following formula: tumor volume (mm3)=½×(a×b2) (wherein a represented the long diameter, and b represented the short diameter)."}, "[5]": {"test": "Preliminary pre-experiment, toxicity to mice", "type": "in vivo", "conditions": "dose of 8 mg/kg", "from_the_text": "For ethical considerations, the […] was not set in the experimental design."}, "[6]": {"molecular_target": "T1, PDL1 on PDL1-positive cells NCI-H292 and NCI-H441 (UniProt Q9NZQ7 19-290, limits assumed)", "T1 construct": "whole, on cells; Human tumor cell lines; also called CD274; B7-H1", "T1 sequence (Q9NZQ7 19-290 limits assumed)": "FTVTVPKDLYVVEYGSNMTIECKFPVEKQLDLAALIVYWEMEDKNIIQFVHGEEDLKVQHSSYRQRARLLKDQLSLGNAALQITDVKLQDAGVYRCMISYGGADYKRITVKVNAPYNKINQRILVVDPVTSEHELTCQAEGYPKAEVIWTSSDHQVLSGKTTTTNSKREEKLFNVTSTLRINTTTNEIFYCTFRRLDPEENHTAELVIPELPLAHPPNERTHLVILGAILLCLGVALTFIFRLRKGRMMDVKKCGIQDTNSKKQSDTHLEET", "test": "flow cytometry on NCI-H292 cells, goat anti-human IgG detection"}}, "data": [{"molecule": "CC[C@@]1(O)C(=O)OCc2c1cc1n(c2=O)Cc2c-1nc1cc3c(cc1c2CCCO)OCO3", "note": "[A1.3, (S)-7-ethyl-7-hydroxy-14-(3-hydroxypropyl)-10,13-dihydro-11H-[1,3]dioxolo[4,5-g]pyrano[3′,4′,6,7]indolizino[1,2-b]quinoline-8,11(7H)-dione]", "values": [{"measurement": "TGI", "setting": "[1]", "result": 37.16, "unit": "%"}, {"measurement": "TGI", "setting": "[2]", "result": 56.5, "unit": "%"}, {"measurement": "TGI", "setting": "[3]", "result": 34.12, "unit": "%"}]}, {"molecule": "SGN-PDL1V: reference ADC of WO 2021067776 A1: SGN-PDL1V antibody moiety conjugated to MC-VC-PABC-MMAE [reference compound]", "values": [{"measurement": "concentration at which non-specific killing resulted", "setting": "human dendritic cells", "result": "above 20 nM"}, {"measurement": "concentration at which non-specific killing resulted", "setting": "human macrophages", "result": "above 20 nM"}, {"measurement": "TGI", "setting": "[4]", "result": 24.11, "unit": "%"}, {"measurement": "toxicity to mice", "setting": "[5]", "result": "severely lethal toxicity"}]}, {"molecule": "MAB20 (antibody, human IgG1, lambda, N297A, V domains shown, also called anti-PDL1 antibody MAB20; Anti-PDL1_mAb) VH: EVQLVQSGGGLVKPGGSLRLSCAASGFTFSSYTMNWVRQAPGKGLEWVSSISSGSDYLYYADSVKGRFTISRDNAKNSLYLQMNSLRAEDTAVYYCARNELRWYPQAGAFDRWGQGTMVTVSS VL: QSVVTQPPSMSAAPGQRVTISCSGSSSYIESSYVGWYQQLPGTAPRLLIYDDDMRPSGIPDRFSGSKSGTSATLAITGLQTGDEADYYCEIWRSGLGGVFGGGTKLTVLS", "values": [{"measurement": "binding result", "setting": "[6]", "result": "binds"}]}]}
